From article PMC10221159, “Investigation of N-Acetyltransferase 2-Mediated Drug Interactions of Amifampridine: In Vitro and In Vivo Evidence of Drug Interactions with Acetaminophen” (Pharmaceutics, 2023)

Experiment: In vivo pharmacokinetic interaction study in rats (plasma)
Design: species or system rat
Details: oral amifampridine 2 mg/kg; for AUC(0-inf) / AUC(0-t) / CL/F / Cmax / MRT / Tmax / Vd/F / half-life / CL renal: male, Sprague-Dawley, rat, po, 2 mg/kg; for AUC(0-inf) / AUC(0-t) / CL/F / Cmax / MRT / Tmax / Vd/F / half-life: plasma; for CL renal: urine and plasma, renal clearance
Description: Male Sprague Dawley (SD) rats (7–8 weeks old, 260–330 g) were purchased from Orient Bio, Inc. (Seongnam, Korea). The rats were housed under a light/dark cycle for 12 h and were left for at least a week before the experiment to adapt to the laboratory environment. Water and food were provided ad libitum. The rats were fasted overnight with free access to water prior to pharmacokinetic studies. The protocols for animal experiments were approved in accordance with the Guidelines for Animal Care and Use of Gachon University (approval no.: GIACUC-R2021006; 13 May 2021).
The rats were anesthetized with a mixture of Rompun and Zoletil by intramuscular injection and received an intraperitoneal injection of vehicle (40:60 PEG400:normal saline; n = 8) or 100 mg/kg acetaminophen (n = 8). After 10 min, 2 mg/kg amifampridine (dissolved in saline) was administered orally. Blood samples were collected at 0, 5, 15, 30, 60, 90, 120, 240, and 360 min and centrifuged at 14,000 rpm for 15 min at 4 °C. For analysis of amifampridine and 3-N-acetylamifampridine, 50 μL of plasma samples was mixed with 100 μL IS solution (5 ng/mL ondansetron in acetonitrile) and the mixture was vortexed followed by centrifugation at 14,000 rpm for 15 min at 4 °C. For the analysis of acetaminophen, 200 μL of IS (tolbutamide 200 ng/mL in methanol) was added to the plasma samples which were diluted 10-fold using the blank plasma and then vortexed for one minute. Further, the samples were centrifuged at 14,000 rpm for 15 min at 4 °C. The supernatants were transferred to LC vials for quantification.
Non-compartment analysis (NCA) was performed to calculate the pharmacokinetic parameters for the in vivo study using WinNonlin (Version 8.3. (Pharsight Corporation, Mountain View, CA, USA)). The area under the plasma concentration–time curve from time 0 to infinity (AUCinf) was calculated by the linear trapezoidal method and standard extrapolation using λ, where λ represents the slope of the terminal phase in a semi-log graph for plasma concentration–time profiles. Renal clearance (CLr) was determined by dividing the accumulated amount of drug excreted in the urine by AUCinf.

[1] = acetaminophen-treated (100 mg/kg) vs control rats
[2] = acetaminophen-treated group (100 mg/kg ip)

increase in AUCinf [1]: 185.64%
increase in Cmax [1]: 208.34%
AUC(0-inf) [2]: 434 ng·h/mL
AUC(0-t) [2]: 414 ng·h/mL
CL/F [2]: 81.7 ± 21.2 mL/min/kg
Cmax [2]: 200 ± 100 ng/mL
MRT [2]: 2.08 h
Tmax [2]: 1 h
Vd/F [2]: 9.83 ± 4.69 L/kg
half-life [2]: 1.36 ± 0.416 h
AUC(0-inf) (control group): 152 ng·h/mL
AUC(0-t) (control group): 141 ng·h/mL
CL/F (control group): 225 ± 38.3 mL/min/kg
Cmax (control group): 70 ± 20 ng/mL
MRT (control group): 2.29 h
Tmax (control group): 0.781 h
Vd/F (control group): 26.9 L/kg
half-life (control group): 1.4 ± 0.352 h
CL renal [2]: 3.87 ± 0.91 mL/min
CL renal (control group): 4.89 ± 1.71 mL/min
Structure (SMILES): Nc1ccncc1N [amifampridine]
